Results reported in PubChem BioAssay AID588737 (Vanderbilt Specialized Chemistry Center, 2011).

Target: Metabotropic glutamate receptor 5 (Homo sapiens) (UniProt P41594)
Experiment: PubChem AID 588737
Details: HEK293A hmGluR5 calcium fluorescence, glutamate CRC fold shift, at 10 µM, stronger effect = higher value; for Emax: glutamate max response with compound

Chain of Metabotropic glutamate receptor 5 (Homo sapiens) (P41594 whole entry, looked up): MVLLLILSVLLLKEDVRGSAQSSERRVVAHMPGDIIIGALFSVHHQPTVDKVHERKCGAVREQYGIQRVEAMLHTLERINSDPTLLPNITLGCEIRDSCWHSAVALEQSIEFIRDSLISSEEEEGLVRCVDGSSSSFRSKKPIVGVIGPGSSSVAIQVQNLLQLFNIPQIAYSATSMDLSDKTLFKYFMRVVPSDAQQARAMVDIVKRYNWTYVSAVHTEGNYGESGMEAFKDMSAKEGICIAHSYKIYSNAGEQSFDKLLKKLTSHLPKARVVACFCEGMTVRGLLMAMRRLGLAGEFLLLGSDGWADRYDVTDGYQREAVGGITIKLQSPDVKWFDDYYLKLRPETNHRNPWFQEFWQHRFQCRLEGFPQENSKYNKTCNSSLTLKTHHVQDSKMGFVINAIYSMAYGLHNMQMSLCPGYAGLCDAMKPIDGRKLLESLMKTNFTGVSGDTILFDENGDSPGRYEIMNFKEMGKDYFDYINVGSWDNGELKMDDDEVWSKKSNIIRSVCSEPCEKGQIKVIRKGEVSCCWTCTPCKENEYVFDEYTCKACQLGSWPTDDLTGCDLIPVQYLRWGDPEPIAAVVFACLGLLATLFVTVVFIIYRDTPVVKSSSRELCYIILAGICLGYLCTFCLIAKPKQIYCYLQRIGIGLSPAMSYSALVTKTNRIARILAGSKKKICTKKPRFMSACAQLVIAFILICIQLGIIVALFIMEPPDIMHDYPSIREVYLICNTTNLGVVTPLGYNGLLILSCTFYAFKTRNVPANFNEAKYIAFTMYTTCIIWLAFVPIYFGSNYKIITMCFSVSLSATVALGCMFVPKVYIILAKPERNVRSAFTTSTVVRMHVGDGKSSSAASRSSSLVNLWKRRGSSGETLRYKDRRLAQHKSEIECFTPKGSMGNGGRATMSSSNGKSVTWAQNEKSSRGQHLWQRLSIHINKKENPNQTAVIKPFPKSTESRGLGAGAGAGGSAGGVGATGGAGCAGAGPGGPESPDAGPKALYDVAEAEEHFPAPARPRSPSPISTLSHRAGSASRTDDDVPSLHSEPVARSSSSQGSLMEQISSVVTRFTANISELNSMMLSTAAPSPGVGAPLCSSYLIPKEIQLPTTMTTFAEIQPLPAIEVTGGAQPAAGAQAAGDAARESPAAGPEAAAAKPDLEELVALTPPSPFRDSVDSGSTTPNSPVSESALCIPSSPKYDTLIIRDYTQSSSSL

fold shift	Emax [%]	Compound
2.19	88	CC1(NC(=O)c2ccc(C#Cc3cccc(F)c3)cn2)COC1
9.79	95	C[C@@H](NC(=O)c1ccc(C#Cc2cccc(F)c2)cn1)C(C)(C)O
